Laboratory results published in US11007177B2, “Compositions comprising a combination of a substituted flavonoid and a substituted indole for treating ocular diseases” (University of Macau, priority 2015, dated 2021).

System: TSP-1 null mice
Assay: Corneal fluorescein staining in murine model of Sjögren's syndrome
Type: in vivo
Conditions: 5 μL eye drops twice daily, 30 μM quercetin and/or 0.5 μM I3O in PBS
Experimental: Mice. Thrombospondin (TSP)-1 null mice (C57BL/6 background), were bred in-house in a pathogen-free facility at Boston University School of Medicine, Boston, Mass. All experiments were conducted in accordance with institutional guidelines and ARVO Statement of the Use of Animals in Ophthalmic and Vision Research.
Corneal Fluorescein Staining. Sodium fluorescein (1%), 1 μl was applied to the cornea of mice under anesthesia. Three minutes later, eyes were flushed with PBS to remove excess fluorescein, and corneal staining was evaluated and photographed with a slit lamp biomicroscope (Humphrey-Zeiss, Dublin, Calif.) using a cobalt blue light. Punctate staining was recorded using a standardized National Eye Institute grading system of 0 to 3 for each of the five areas of the cornea (Lemp, 1995, CLAO J. 21:221-232).
TSP-1 deficient (null) mice (12 wk old) were treated with eyedrops twice daily for a period of two weeks. The 5 μL eye drops were either PBS as a control or 0.5 μM I3O and 30 μM quercetin in PBS, 0.5 μM I3O alone in PBS, or 30 μM quercetin alone in PBS. […] Clinical signs of dry eye disease, including effect on the corneal surface and peroxidase levels in tears, were measured at baseline (prior to initiating treatment) and at the end of week 1 and effect on the corneal surface was assayed again at the end of week 2. […]

| SMILES | corneal surface / corneal fluorescein score, week 2 (week 2, FIG. 5) | corneal surface / corneal fluorescein score, week 1 (week 1, FIG. 5) |
| --- | --- | --- |
| O=C1Nc2ccccc2/C1=C1/Nc2ccccc2/C1=N\O [Heterodimer I3O, indirubin-3′-oxime] | small improvement in corneal fluorescein score at week 2, but it was not significant | – |
| O=c1c(O)c(-c2ccc(O)c(O)c2)oc2cc(O)cc(O)c12 [quercetin] | – | significant improvement in the corneal surface |
